Measurements taken from ChEMBL document CHEMBL4385653, “Design, synthesis, biological evaluation of benzoyl amide derivatives containing nitrogen heterocyclic ring as potential VEGFR-2 inhibitors” (Bioorg Med Chem, 2019).
pIC50: −log10 of the molar value. Each block holds one compound with its values, some of them ahead of it.

Key:
[1] = Inhibition of PDGFR (unknown origin) incubated for 30 mins by enzyme immunoassay; set-up: species or system Homo sapiens
[2] = test system: HepG2; assay: Antiproliferative activity against human HepG2 cells assessed as inhibition of cell proliferation incubated for 48 hrs by MTT assay; assay type: functional, cell-based; details: HepG2, 48 h
[3] = test system: HeLa; assay: Antiproliferative activity against human HeLa cells assessed as inhibition of cell proliferation incubated for 48 hrs by MTT assay; assay type: functional, cell-based
[4] = target: Fibroblast growth factor receptor 1 (Homo sapiens, UniProt P11362); assay: Inhibition of bFGFR (unknown origin) incubated for 30 mins by enzyme immunoassay
Sequence of Fibroblast growth factor receptor 1 (P11362 whole entry): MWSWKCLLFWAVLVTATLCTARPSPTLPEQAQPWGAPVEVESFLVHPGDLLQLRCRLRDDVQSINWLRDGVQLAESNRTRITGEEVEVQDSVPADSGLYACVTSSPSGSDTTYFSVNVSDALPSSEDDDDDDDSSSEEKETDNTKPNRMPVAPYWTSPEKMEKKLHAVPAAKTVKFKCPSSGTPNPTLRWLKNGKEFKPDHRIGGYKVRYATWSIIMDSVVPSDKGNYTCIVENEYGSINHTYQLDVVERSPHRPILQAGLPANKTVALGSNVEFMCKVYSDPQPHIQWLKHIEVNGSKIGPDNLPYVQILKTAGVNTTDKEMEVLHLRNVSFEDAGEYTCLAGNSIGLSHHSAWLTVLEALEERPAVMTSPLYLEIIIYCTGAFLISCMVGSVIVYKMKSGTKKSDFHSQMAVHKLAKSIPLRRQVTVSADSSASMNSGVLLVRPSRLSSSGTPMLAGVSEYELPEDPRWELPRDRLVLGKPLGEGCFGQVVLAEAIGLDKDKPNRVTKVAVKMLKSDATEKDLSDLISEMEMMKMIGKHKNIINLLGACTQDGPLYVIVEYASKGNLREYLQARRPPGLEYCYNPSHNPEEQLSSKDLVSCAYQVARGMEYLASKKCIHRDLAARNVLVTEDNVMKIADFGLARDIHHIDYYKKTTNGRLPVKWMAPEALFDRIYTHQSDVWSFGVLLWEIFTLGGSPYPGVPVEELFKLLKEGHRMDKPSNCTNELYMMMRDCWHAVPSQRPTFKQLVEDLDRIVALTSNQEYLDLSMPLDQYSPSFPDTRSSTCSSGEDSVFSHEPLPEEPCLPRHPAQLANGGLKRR

[5] = test system: A549; assay: Antiproliferative activity against human A549 cells assessed as inhibition of cell proliferation incubated for 48 hrs by MTT assay; assay type: functional, cell-based; details: A549, 48 h
[6] = test system: MCF7; assay: Antiproliferative activity against human MCF7 cells assessed as inhibition of cell proliferation incubated for 48 hrs by MTT assay; assay type: functional, cell-based; details: MCF7, 48 h
[7] = target: Vascular endothelial growth factor receptor 2 (Homo sapiens, UniProt P35968); assay: Inhibition of VEGFR2 (unknown origin) incubated for 30 mins by enzyme immunoassay
Sequence of Vascular endothelial growth factor receptor 2 (P35968 whole entry): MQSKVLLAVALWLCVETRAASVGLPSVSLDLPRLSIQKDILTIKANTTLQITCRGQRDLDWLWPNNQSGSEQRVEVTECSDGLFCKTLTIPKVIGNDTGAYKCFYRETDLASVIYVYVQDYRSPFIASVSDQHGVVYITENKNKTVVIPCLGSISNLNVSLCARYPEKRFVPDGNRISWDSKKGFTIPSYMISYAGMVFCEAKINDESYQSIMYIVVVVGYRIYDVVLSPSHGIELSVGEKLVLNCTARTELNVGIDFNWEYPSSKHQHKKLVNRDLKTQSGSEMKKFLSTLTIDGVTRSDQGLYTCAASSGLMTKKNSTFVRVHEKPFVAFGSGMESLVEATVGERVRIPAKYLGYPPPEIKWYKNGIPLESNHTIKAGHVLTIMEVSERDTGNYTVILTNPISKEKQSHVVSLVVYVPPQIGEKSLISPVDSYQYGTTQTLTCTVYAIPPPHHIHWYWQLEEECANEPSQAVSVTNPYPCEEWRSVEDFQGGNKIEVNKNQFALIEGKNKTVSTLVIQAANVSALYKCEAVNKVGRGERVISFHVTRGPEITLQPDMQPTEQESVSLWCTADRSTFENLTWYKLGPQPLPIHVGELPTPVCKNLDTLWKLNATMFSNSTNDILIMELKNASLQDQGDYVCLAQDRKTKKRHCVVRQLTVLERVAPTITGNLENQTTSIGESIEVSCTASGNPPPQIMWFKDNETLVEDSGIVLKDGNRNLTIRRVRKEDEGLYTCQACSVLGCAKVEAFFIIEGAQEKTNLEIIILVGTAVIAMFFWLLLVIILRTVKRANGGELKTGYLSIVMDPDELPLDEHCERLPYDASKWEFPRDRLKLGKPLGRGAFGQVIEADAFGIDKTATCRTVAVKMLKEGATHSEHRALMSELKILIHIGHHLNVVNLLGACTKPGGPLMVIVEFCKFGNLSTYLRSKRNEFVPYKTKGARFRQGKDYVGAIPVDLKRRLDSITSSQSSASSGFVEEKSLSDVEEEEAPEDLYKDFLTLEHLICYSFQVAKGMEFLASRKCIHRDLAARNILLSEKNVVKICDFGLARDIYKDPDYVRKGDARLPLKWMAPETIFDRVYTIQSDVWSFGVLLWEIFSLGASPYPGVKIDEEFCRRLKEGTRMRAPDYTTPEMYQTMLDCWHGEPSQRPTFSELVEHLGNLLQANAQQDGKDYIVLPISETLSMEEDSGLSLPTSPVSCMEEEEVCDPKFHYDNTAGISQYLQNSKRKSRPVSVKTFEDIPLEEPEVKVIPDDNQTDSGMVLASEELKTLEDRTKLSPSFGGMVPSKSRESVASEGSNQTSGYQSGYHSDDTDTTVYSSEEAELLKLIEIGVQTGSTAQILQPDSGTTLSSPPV

[8] = target: Epidermal growth factor receptor (Homo sapiens, UniProt P00533); assay: Inhibition of EGFR (unknown origin) incubated for 30 mins by enzyme immunoassay
Sequence of Epidermal growth factor receptor (P00533 whole entry): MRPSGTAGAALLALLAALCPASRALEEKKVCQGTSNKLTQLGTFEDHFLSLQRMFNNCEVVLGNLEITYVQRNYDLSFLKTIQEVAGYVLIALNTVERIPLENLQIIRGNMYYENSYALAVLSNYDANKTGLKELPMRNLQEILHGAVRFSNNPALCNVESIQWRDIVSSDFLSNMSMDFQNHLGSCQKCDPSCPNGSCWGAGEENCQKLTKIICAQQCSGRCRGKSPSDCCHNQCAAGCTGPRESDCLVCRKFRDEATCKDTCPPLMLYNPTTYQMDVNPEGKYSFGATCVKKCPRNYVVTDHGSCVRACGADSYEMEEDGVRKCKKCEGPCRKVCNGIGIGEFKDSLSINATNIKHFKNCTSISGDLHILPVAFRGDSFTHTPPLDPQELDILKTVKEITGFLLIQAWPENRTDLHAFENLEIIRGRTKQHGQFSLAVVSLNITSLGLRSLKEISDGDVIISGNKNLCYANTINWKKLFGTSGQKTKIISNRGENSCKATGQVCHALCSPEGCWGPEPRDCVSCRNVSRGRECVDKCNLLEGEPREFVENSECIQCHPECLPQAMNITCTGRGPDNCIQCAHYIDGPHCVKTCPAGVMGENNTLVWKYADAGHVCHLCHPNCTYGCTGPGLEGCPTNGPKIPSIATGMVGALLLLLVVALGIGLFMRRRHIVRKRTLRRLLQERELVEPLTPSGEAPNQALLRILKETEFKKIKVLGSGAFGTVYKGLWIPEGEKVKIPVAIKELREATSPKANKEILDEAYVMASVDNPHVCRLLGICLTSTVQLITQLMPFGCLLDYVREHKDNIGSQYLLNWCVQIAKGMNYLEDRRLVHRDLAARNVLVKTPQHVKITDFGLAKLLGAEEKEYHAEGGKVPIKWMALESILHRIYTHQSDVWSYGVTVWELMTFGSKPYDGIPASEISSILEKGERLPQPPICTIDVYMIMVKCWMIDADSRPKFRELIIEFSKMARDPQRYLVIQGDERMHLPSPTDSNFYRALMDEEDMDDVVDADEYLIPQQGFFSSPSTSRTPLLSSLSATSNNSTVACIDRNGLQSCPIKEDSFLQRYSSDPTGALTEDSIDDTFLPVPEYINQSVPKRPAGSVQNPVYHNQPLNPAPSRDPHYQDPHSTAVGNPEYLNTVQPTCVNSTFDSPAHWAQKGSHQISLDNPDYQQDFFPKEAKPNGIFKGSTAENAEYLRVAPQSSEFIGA

[9] = Cytotoxicity in HEK293T cells assessed as reduction in cell viability incubated for 48 hrs by MTT assay; assay type: cell-based, HEK-293T; details: human
[10] = test system: MCF7; assay: Induction of apoptosis in human MCF7 cells assessed as late apoptotic cells level at 4 uM incubated for 36 hrs by Annexin V-FITC/PI double staining based flow cytometry analysis (reference value: 3.1%); assay type: functional
[11] = test system: MCF7; assay: Induction of apoptosis in human MCF7 cells assessed as late apoptotic cells level at 4 uM incubated for 12 hrs by Annexin V-FITC/PI double staining based flow cytometry analysis (reference value: 3.1%); assay type: functional
[12] = test system: MCF7; assay: Induction of apoptosis in human MCF7 cells assessed as late apoptotic cells level at 2 uM incubated for 24 hrs by Annexin V-FITC/PI double staining based flow cytometry analysis (reference value: 10.1%); assay type: functional
[13] = test system: MCF7; assay: Induction of apoptosis in human MCF7 cells assessed as early apoptotic cells level at 4 uM incubated for 24 hrs by Annexin V-FITC/PI double staining based flow cytometry analysis (reference value: 1.06%); assay type: functional
[14] = test system: MCF7; assay: Induction of apoptosis in human MCF7 cells assessed as late apoptotic cells level at 8 uM incubated for 24 hrs by Annexin V-FITC/PI double staining based flow cytometry analysis (reference value: 10.1%); assay type: functional
[15] = test system: MCF7; assay: Induction of apoptosis in human MCF7 cells assessed as viable cells level at 4 uM incubated for 24 hrs by Annexin V-FITC/PI double staining based flow cytometry analysis (reference value: 89%); assay type: functional
[16] = test system: MCF7; assay: Induction of apoptosis in human MCF7 cells assessed as late necrotic cells level at 4 uM incubated for 12 hrs by Annexin V-FITC/PI double staining based flow cytometry analysis (reference value: 6.88%); assay type: functional
[17] = test system: MCF7; assay: Induction of apoptosis in human MCF7 cells assessed as late apoptotic cells level at 4 uM incubated for 24 hrs by Annexin V-FITC/PI double staining based flow cytometry analysis (reference value: 3.1%); assay type: functional
[18] = test system: MCF7; assay: Induction of apoptosis in human MCF7 cells assessed as viable cells level at 4 uM incubated for 36 hrs by Annexin V-FITC/PI double staining based flow cytometry analysis (reference value: 89%); assay type: functional
[19] = test system: MCF7; assay: Induction of apoptosis in human MCF7 cells assessed as viable cells level at 4 uM incubated for 12 hrs by Annexin V-FITC/PI double staining based flow cytometry analysis (reference value: 89%); assay type: functional
[20] = test system: MCF7; assay: Induction of apoptosis in human MCF7 cells assessed as late necrotic cells level at 4 uM incubated for 24 hrs by Annexin V-FITC/PI double staining based flow cytometry analysis (reference value: 1.49%); assay type: functional
[21] = test system: MCF7; assay: Induction of apoptosis in human MCF7 cells assessed as late apoptotic cells level at 4 uM incubated for 24 hrs by Annexin V-FITC/PI double staining based flow cytometry analysis (reference value: 10.1%); assay type: functional
[22] = test system: MCF7; assay: Induction of apoptosis in human MCF7 cells assessed as early apoptotic cells level at 8 uM incubated for 24 hrs by Annexin V-FITC/PI double staining based flow cytometry analysis (reference value: 6.37%); assay type: functional
[23] = test system: MCF7; assay: Induction of apoptosis in human MCF7 cells assessed as viable cells level at 2 uM incubated for 24 hrs by Annexin V-FITC/PI double staining based flow cytometry analysis (reference value: 82%); assay type: functional
[24] = test system: MCF7; assay: Induction of apoptosis in human MCF7 cells assessed as early apoptotic cells level at 4 uM incubated for 24 hrs by Annexin V-FITC/PI double staining based flow cytometry analysis (reference value: 6.37%); assay type: functional
[25] = test system: MCF7; assay: Induction of apoptosis in human MCF7 cells assessed as early apoptotic cells level at 4 uM incubated for 36 hrs by Annexin V-FITC/PI double staining based flow cytometry analysis (reference value: 1.06%); assay type: functional
[26] = test system: MCF7; assay: Induction of apoptosis in human MCF7 cells assessed as late necrotic cells level at 2 uM incubated for 24 hrs by Annexin V-FITC/PI double staining based flow cytometry analysis (reference value: 1.49%); assay type: functional
[27] = test system: MCF7; assay: Induction of apoptosis in human MCF7 cells assessed as viable cells level at 8 uM incubated for 24 hrs by Annexin V-FITC/PI double staining based flow cytometry analysis (reference value: 82%); assay type: functional
[28] = test system: MCF7; assay: Induction of apoptosis in human MCF7 cells assessed as early apoptotic cells level at 2 uM incubated for 24 hrs by Annexin V-FITC/PI double staining based flow cytometry analysis (reference value: 6.37%); assay type: functional
[29] = test system: MCF7; assay: Induction of apoptosis in human MCF7 cells assessed as viable cells level at 4 uM incubated for 24 hrs by Annexin V-FITC/PI double staining based flow cytometry analysis (reference value: 82%); assay type: functional
[30] = test system: MCF7; assay: Induction of apoptosis in human MCF7 cells assessed as late necrotic cells level at 4 uM incubated for 36 hrs by Annexin V-FITC/PI double staining based flow cytometry analysis (reference value: 6.88%); assay type: functional
[31] = test system: MCF7; assay: Induction of apoptosis in human MCF7 cells assessed as late necrotic cells level at 4 uM incubated for 24 hrs by Annexin V-FITC/PI double staining based flow cytometry analysis (reference value: 6.88%); assay type: functional
[32] = test system: MCF7; assay: Induction of apoptosis in human MCF7 cells assessed as early apoptotic cells level at 4 uM incubated for 12 hrs by Annexin V-FITC/PI double staining based flow cytometry analysis (reference value: 1.06%); assay type: functional
[33] = test system: MCF7; assay: Induction of apoptosis in human MCF7 cells assessed as late necrotic cells level at 8 uM incubated for 24 hrs by Annexin V-FITC/PI double staining based flow cytometry analysis (reference value: 1.49%); assay type: functional

pIC50 [1]: 4.56
pIC50 [2]: 4.60
pIC50 [3]: 4.58
pIC50 [4]: 4.48
pIC50 [5]: 4.09
pIC50 [6]: 4.78
pIC50 [7]: 5.04
pIC50 [8]: 4.64
Compound: COc1cccc(-n2cc(NC(=O)c3cccc(NS(=O)(=O)c4ccccc4)c3)cn2)c1

pIC50 [1]: 4.42
pIC50 [2]: 4.45
pIC50 [3]: 4.37
pIC50 [4]: 4.43
pIC50 [5]: 4.11
pIC50 [6]: 4.73
pIC50 [7]: 4.98
pIC50 [8]: 4.57
Compound: COc1ccc(-n2cc(NC(=O)c3cccc(NS(=O)(=O)c4ccccc4)c3)cn2)cc1

pIC50 [1]: 4.40
pIC50 [2]: 4.08
pIC50 [3]: 4.20
pIC50 [4]: 4.23
pIC50 [5]: < 4.00
pIC50 [6]: 4.49
pIC50 [7]: 4.76
Compound: Cn1cc(NC(=O)c2cccc(NS(=O)(=O)c3ccc(Cl)cc3)c2)cn1

pIC50 [1]: 4.59
pIC50 [2]: 4.74
pIC50 [3]: 4.55
pIC50 [4]: 4.55
pIC50 [5]: 4.26
pIC50 [6]: 4.96
pIC50 [7]: 5.16
pIC50 [8]: 4.74
Compound: Cc1ccc(-n2cc(NC(=O)c3ccc(NS(=O)(=O)c4ccccc4)cc3)cn2)cc1
CC50 at 48 h [9]: 107 µM

pIC50 [1]: 4.38
pIC50 [2]: 4.07
pIC50 [3]: 4.11
pIC50 [4]: 4.24
pIC50 [5]: < 4.00
pIC50 [6]: 4.39
pIC50 [7]: 4.69
pIC50 [8]: 4.46
Compound: Cn1cc(NC(=O)c2cccc(NS(=O)(=O)c3ccccc3)c2)cn1

pIC50 [1]: 4.73
pIC50 [2]: 5.00
pIC50 [3]: 4.81
pIC50 [4]: 4.74
pIC50 [5]: 4.57
pIC50 [6]: 5.36
pIC50 [7]: 5.49
pIC50 [8]: 4.81
Compound: O=C(Nc1cnn(-c2ccccc2)c1)c1cccc(NS(=O)(=O)c2ccccc2)c1
CC50 at 48 h [9]: 110 µM

Compound: CCCS(=O)(=O)Nc1ccc(F)c(C(=O)c2c[nH]c3ncc(-c4ccc(Cl)cc4)cc23)c1F [VEMURAFENIB]
Activity [10]: 13.7%
Activity [11]: 13.9%
Activity [12]: 14.9%
Activity [13]: 15.1%
Activity [14]: 26.3%
Activity [15]: 66.4%
Activity [16]: 1.24%
Activity [17]: 16.7%
Activity [18]: 50.7%
Activity [19]: 70.7%
Activity [20]: 3.53%
Activity [21]: 21.7%
Activity [22]: 14.4%
Activity [23]: 74.6%
Activity [24]: 8.13%
Activity [25]: 34.7%
Activity [26]: 2.29%
Activity [27]: 57.2%
Activity [28]: 8.28%
Activity [29]: 66.7%
Activity [30]: 0.853%
Activity [31]: 1.81%
Activity [32]: 14.2%
Activity [33]: 2.02%

pIC50 [1]: 4.80
pIC50 [2]: 5.22
pIC50 [3]: 5.51
pIC50 [4]: 4.79
pIC50 [5]: 4.72
pIC50 [6]: 5.77
pIC50 [7]: 6.24
pIC50 [8]: 5.02
Compound: Cc1ccc(-n2cc(NC(=O)c3cccc(NS(=O)(=O)c4ccccc4)c3)cn2)cc1
CC50 at 48 h [9]: 93.8 µM

pIC50 [1]: 4.37
pIC50 [2]: < 4.00
pIC50 [3]: 4.03
pIC50 [4]: 4.21
pIC50 [5]: < 4.00
pIC50 [6]: 4.23
pIC50 [7]: 4.60
pIC50 [8]: 4.43
Compound: Cn1cc(NC(=O)c2ccc(NS(=O)(=O)c3ccccc3)cc2)cn1

pIC50 [1]: 4.61
pIC50 [2]: 4.71
pIC50 [3]: 4.60
pIC50 [4]: 4.65
pIC50 [5]: 4.35
pIC50 [6]: 5.03
pIC50 [7]: 5.22
pIC50 [8]: 4.81
Compound: COc1cccc(-n2cc(NC(=O)c3cccc(NS(=O)(=O)c4ccc(Cl)cc4)c3)cn2)c1
CC50 at 48 h [9]: 133 µM
